# Assay results as given in ChEMBL document CHEMBL1201862, “PubChem BioAssay data set” (2004).
# Active and inactive are the calls of the source. Rule as the data show it, for most assays here: actives have a measured IC50 and inactives only a lower limit.
# Columns and labels:
# [1] = target: T1, Dual specificity protein phosphatase 3 (Homo sapiens, UniProt P51452); experiment: inhibition constants for human DUSP3 – biochemical, colorimetric, SAR follow-up (AID 2004)
# [2] = target: T2, Bcl-2-related protein A1 (Mus musculus, UniProt Q07440); assay type: functional;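 also: confirmatory dose–response counterscreen on Bfl-1, used to check hits from a UBC13 polyubiquitin inhibitor campaign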
# T2 sequence (Q07440 whole entry): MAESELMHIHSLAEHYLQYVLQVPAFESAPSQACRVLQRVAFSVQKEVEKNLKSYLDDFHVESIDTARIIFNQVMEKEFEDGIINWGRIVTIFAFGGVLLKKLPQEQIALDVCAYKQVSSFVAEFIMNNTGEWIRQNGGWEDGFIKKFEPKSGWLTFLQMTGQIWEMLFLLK
# [3] = target: T3, Ubiquitin-conjugating enzyme E2 N (Homo sapiens, UniProt P61088); assay type: functional
# T3 sequence (P61088 whole entry): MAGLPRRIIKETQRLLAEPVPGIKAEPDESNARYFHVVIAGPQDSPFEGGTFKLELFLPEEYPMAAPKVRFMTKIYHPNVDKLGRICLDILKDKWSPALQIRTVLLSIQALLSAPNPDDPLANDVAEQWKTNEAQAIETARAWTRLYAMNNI
# [4] = target: T3, Ubiquitin-conjugating enzyme E2 N; assay type: functional; remark: listed apart in the source
# [5] = target: Beta-galactosidase (Escherichia coli, UniProt Q8VNN2); experiment: detection-enzyme interference by beta-gal modulators – biochemical, E. coli enzyme, set 3, artefact control for CCR6 antagonist project, dose response (AID 504712); assay type: functional
# [6] = target: T4, Eukaryotic translation initiation factor 4H (Homo sapiens, UniProt Q15056); experiment: eIF4H binding inhibition – biochemical, uHTS, fluorescence polarization, translation initiation inhibitor project, primary screen (AID 2012)
# [7] = target: T5, Polyadenylate-binding protein 1 (Homo sapiens, UniProt P11940); experiment: blockers of PABP interaction with poly(A) – biochemical, fluorescence polarization, […] (AID 2014)
# [8] = target: T4, Eukaryotic translation initiation factor 4H; experiment: inhibitors of translation initiation factor eIF4H – SAR follow-up (AID 435011); assay type: functional
# [9] = target: T6, DNA dC->dU-editing enzyme APOBEC-3A (Homo sapiens, UniProt P31941); experiment: Dose Response confirmation of small molecule APOBEC3A DNA Deaminase Inhibitors via a fluorescence-based single-stranded DNA deaminase assay. [Related pubchem assays (depositor defined):AID493011, AID493024]; assay type: functional
# [10] = target: T5, Polyadenylate-binding protein 1; experiment: PABP inhibition in translation initiation, SAR follow-up (AID 435018); assay type: functional
# [11] = target: T7, DNA dC->dU-editing enzyme APOBEC-3G (Homo sapiens, UniProt Q9HC16); assay type: functional
# [12] = target: T6, DNA dC->dU-editing enzyme APOBEC-3A; experiment: SAR analysis of small molecule inhibitors of APOBEC3A DNA Deaminase via a fluorescence-based single-stranded DNA deaminase assay - Set 2.; assay type: functional; settings: read-out: IC50_Mean
# [13] = target: T7, DNA dC->dU-editing enzyme APOBEC-3G; experiment: SAR analysis of small molecule inhibitors of APOBEC3G DNA Deaminase via a fluorescence-based single-stranded DNA deaminase assay - Set 2.; assay type: functional; settings: read-out: IC50_Mean
# [14] = target: T7, DNA dC->dU-editing enzyme APOBEC-3G; experiment: inhibition of APOBEC3G ssDNA deamination – biochemical, fluorescence, single-stranded DNA substrate, SAR follow-up (AID 602136); assay type: functional; settings: read-out: IC50_Mean
# [15] = target: T6, DNA dC->dU-editing enzyme APOBEC-3A; experiment: SAR analysis of small molecule inhibitors of APOBEC3A DNA Deaminase via a fluorescence-based single-stranded DNA deaminase assay.; assay type: functional; settings: read-out: IC50_Mean
# [16] = target: G-protein coupled receptor 55 (Homo sapiens, UniProt Q9Y2T6); experiment: selective activators of receptor GPR55 – imaging, U2OS cells, beta-arrestin-GFP redistribution, primary screen (AID 1961); assay type: functional
# [17] = target: Voltage-dependent T-type calcium channel subunit alpha-1H (Homo sapiens, UniProt O95180); experiment: human CACNA1H calcium influx blockade – cell-based, synthetic library set 2, HEK293 HH8, Fluo-4, SAR follow-up (AID 493023); assay type: functional
# [18] = target: Mu-type opioid receptor (Homo sapiens, UniProt P35372); experiment: SAR Analysis of Antagonists of the MOR Receptor using an Image-Based Assay - Set 3. [Related pubchem assays (depositor defined):AID1777, AID1785, AID1786, AID1966, AID2133, AID2136, AID2284, AID2285, AID2420]; assay type: functional
# [19] = target: T8, Kappa-type opioid receptor (Homo sapiens, UniProt P41145); experiment: SAR analysis of small molecule antagonists of the kappa opioid receptor via a luminescent beta-arrestin assay - Set 4. [Related pubchem assays (depositor defined):AID1777, AID1778, AID1785, AID1786, AID1966, AID2133, AID2136, AID2285]; assay type: functional
# [20] = target: Delta-type opioid receptor (Homo sapiens, UniProt P41143); experiment: SAR Analysis of Antagonists of the DOR Receptor using an Image-Based Assay - Set 3. [Related pubchem assays (depositor defined):AID1777, AID1785]; assay type: functional;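 also: U2OS cells expressing DOR1 and beta-arrestin GFP stimulated with 100 nM SNC80; imaging of GFP-tagged beta-arrestin moving into spots after receptor activation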
# [21] = target: T8, Kappa-type opioid receptor; experiment: SAR analysis of Antagonists of the Kappa Opioid Receptor (KOR) using an Image-Based Assay - Set 4. [Related pubchem assays (depositor defined):AID1777, AID1785]; assay type: functional
# [22] = target: Tyrosine-protein phosphatase non-receptor type 12 (Homo sapiens, UniProt Q05209); experiment: SAR Selectivity Analysis of small molecule inhibitors of PEST using pCAP in a fluorescence assay. [Related pubchem assays (depositor defined):AID1779, AID1784, AID2135]; assay type: functional
# [23] = target: T1, Dual specificity protein phosphatase 3; experiment: SAR VHR1 absorbance Assay for In Vitro dose response studies. [Related pubchem assays (depositor defined):AID1654, AID1661, AID1878, AID1992, AID2004]
# [24] = target: T1, Dual specificity protein phosphatase 3; experiment: SAR VHR1 Fluorescent Assay for In Vitro dose response studies. [Related pubchem assays (depositor defined):AID1654, AID1661, AID1878, AID1992, AID2004, AID2070, AID2085]; assay type: functional
# [25] = target: T9, Tyrosine-protein phosphatase non-receptor type 22 (Homo sapiens, UniProt Q9Y2R2); experiment: SAR LYP1 Fluorescent Assay using OMFP substrate for In Vitro dose response studies - Set 3. [Related pubchem assays (depositor defined):AID1779, AID1784, AID2140, AID2686]; assay type: functional
# T9 sequence (Q9Y2R2 whole entry): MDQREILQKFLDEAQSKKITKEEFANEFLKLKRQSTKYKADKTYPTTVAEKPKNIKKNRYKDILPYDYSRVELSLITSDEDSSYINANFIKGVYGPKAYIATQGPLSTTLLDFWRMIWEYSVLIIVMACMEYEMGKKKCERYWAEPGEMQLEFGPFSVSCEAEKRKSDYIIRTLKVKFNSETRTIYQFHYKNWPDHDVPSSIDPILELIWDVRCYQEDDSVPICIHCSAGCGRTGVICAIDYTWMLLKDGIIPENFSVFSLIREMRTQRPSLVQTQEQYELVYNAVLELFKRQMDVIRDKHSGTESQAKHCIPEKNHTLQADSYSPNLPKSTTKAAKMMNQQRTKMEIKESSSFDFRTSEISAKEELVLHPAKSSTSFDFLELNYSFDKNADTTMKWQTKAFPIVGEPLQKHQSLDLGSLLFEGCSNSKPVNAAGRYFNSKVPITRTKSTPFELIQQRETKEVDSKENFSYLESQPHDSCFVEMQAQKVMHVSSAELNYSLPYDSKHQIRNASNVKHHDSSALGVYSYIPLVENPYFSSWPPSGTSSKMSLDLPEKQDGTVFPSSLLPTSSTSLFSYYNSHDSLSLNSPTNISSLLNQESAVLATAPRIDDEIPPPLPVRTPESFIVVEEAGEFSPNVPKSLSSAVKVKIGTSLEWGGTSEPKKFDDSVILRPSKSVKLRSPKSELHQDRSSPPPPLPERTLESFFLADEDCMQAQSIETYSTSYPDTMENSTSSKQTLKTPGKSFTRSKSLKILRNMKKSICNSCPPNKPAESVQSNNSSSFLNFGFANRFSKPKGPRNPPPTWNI
# [26] = target: T10, Tyrosine-protein phosphatase non-receptor type 7 (Homo sapiens, UniProt P35236); experiment: redox-active compounds inhibiting HePTP phosphatase – biochemical, fluorescence, mechanism study (AID 2068); assay type: functional
# T10 sequence (P35236 whole entry): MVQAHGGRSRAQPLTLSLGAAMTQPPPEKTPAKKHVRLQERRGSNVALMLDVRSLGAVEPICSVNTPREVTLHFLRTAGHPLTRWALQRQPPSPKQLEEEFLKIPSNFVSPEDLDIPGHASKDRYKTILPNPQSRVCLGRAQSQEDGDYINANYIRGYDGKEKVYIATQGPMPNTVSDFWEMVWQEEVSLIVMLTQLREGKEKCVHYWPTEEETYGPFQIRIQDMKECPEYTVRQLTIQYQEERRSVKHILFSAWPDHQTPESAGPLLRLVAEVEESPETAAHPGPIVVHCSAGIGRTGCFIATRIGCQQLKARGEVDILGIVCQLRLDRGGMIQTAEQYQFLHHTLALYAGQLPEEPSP
# [27] = target: T10, Tyrosine-protein phosphatase non-receptor type 7; experiment: inhibition of hematopoietic tyrosine phosphatase HePTP – biochemical, set 2, SAR follow-up (AID 449736); assay type: functional
# [28] = target: T9, Tyrosine-protein phosphatase non-receptor type 22; experiment: inhibition of lymphoid tyrosine phosphatase LYP – biochemical, pCAP fluorogenic substrate, fluorescence, set 3, SAR follow-up (AID 449727); assay type: functional
# [29] = target: T11, Dual specificity protein phosphatase 6 (Rattus norvegicus, UniProt Q64346); assay type: functional;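 also: confirmatory in vitro dose-response testing of MKP-3 inhibition; recombinant His-tagged MKP-3 made in E. coli BL21 with OMFP substrate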
# T11 sequence (Q64346 whole entry): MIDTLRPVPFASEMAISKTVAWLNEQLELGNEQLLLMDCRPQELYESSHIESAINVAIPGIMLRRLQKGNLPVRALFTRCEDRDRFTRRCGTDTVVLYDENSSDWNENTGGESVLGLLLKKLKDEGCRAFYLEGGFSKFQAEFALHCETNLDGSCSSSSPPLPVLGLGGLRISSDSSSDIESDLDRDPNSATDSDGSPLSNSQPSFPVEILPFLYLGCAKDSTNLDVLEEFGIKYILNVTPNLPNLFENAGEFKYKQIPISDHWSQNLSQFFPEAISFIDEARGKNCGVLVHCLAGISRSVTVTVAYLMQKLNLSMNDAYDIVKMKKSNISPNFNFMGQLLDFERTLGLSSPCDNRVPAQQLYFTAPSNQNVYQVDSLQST
# [30] = target: T8, Kappa-type opioid receptor; experiment: SAR analysis of small molecule antagonists of the kappa opioid receptor via a luminescent beta-arrestin assay - Set 3. [Related pubchem assays (depositor defined):AID1777, AID1778, AID1785, AID1786, AID1966, AID2133, AID2136, AID2285, AID2495]; assay type: functional
# [31] = target: T8, Kappa-type opioid receptor; experiment: SAR analysis of Antagonists of the Kappa Opioid Receptor (KOR) using an Image-Based Assay - Set 3. [Related pubchem assays (depositor defined):AID1777, AID1785]; assay type: functional
# [32] = target: Tumor necrosis factor (Homo sapiens, UniProt P01375); experiment: analog potency on TNFa NF-kB signaling – cell-based, revised, SAR follow-up (AID 2337); assay type: functional
# [33] = target: Nucleotide-binding oligomerization domain-containing protein 1 (Homo sapiens, UniProt Q9Y239); experiment: blockers of NOD1 pathway activity – revised, SAR follow-up (AID 2333); assay type: functional
# [34] = system: HEK293; experiment: cells; settings: Homo sapiens;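 also: cells exposed to compound for 14 hours overnight before viability readout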
# T7 sequence (Q9HC16 whole entry): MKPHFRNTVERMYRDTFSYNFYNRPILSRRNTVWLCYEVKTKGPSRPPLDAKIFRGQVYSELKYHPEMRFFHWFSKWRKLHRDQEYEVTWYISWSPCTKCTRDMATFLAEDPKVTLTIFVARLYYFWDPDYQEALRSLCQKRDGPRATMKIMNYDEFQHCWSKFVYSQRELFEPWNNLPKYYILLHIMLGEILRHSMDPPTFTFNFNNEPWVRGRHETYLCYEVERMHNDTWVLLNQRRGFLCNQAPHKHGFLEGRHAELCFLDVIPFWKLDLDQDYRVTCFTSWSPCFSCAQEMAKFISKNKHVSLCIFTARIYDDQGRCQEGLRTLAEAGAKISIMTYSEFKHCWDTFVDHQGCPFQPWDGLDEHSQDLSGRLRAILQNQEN
# T1 sequence (P51452 whole entry): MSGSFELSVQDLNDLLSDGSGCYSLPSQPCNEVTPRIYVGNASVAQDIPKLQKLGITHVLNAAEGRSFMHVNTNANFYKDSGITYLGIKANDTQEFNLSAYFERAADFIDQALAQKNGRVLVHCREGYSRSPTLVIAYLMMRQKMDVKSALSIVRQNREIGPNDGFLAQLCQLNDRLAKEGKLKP
# T6 sequence (P31941 whole entry): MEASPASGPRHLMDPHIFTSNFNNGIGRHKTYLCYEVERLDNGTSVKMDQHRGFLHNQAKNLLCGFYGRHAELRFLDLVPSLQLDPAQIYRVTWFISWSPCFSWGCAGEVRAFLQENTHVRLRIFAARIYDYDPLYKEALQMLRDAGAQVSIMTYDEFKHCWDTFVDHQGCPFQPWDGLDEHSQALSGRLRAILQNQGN
# T8 sequence (P41145 whole entry): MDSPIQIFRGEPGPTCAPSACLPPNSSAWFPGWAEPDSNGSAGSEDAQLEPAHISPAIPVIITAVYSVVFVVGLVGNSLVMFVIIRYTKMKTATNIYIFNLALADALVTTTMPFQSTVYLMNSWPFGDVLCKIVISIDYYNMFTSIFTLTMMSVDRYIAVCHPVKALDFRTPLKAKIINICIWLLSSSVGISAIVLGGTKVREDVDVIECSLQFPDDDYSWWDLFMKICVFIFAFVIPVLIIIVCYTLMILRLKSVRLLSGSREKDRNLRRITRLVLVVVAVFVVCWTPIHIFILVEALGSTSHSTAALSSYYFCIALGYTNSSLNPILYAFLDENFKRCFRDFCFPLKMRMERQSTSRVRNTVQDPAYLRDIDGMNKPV
# Delta-type opioid receptor, sequence (P41143 whole entry): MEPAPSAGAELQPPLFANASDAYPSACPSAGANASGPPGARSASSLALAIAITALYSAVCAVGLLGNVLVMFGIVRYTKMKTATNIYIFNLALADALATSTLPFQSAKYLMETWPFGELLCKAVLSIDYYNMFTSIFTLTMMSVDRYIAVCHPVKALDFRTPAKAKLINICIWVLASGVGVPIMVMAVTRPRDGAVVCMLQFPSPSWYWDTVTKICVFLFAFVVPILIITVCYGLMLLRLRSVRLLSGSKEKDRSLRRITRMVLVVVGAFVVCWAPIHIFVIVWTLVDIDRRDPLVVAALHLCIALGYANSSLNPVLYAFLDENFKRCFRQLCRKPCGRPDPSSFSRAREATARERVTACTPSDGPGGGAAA
# Mu-type opioid receptor, sequence (P35372 whole entry): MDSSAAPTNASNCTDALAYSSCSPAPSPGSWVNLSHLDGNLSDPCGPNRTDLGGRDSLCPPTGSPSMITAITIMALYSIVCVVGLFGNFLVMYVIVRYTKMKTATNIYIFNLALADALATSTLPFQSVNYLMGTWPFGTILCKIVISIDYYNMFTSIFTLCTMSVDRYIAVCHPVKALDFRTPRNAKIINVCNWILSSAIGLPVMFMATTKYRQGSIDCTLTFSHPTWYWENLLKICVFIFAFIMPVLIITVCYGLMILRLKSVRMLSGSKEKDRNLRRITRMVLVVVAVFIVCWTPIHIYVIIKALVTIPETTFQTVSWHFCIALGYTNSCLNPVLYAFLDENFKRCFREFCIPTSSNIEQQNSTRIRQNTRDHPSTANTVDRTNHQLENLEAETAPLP
# T5 sequence (P11940 whole entry): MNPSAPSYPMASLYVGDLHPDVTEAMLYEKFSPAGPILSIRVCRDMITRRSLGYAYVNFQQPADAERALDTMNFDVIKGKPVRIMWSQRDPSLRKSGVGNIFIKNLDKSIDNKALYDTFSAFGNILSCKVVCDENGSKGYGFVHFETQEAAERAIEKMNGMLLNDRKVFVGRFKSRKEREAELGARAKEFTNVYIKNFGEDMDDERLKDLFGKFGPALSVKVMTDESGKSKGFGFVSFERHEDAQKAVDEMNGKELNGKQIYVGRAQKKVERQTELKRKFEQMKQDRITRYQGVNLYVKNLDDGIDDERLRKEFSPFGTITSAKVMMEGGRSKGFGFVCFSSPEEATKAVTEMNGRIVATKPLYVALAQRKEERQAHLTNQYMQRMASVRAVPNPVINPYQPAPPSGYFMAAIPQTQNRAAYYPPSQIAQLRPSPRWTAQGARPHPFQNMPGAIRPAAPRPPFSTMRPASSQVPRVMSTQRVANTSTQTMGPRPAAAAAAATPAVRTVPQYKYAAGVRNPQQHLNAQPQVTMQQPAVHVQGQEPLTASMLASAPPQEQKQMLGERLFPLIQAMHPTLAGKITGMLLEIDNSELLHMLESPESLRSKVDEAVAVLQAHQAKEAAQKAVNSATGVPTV
# G-protein coupled receptor 55, sequence (Q9Y2T6 whole entry): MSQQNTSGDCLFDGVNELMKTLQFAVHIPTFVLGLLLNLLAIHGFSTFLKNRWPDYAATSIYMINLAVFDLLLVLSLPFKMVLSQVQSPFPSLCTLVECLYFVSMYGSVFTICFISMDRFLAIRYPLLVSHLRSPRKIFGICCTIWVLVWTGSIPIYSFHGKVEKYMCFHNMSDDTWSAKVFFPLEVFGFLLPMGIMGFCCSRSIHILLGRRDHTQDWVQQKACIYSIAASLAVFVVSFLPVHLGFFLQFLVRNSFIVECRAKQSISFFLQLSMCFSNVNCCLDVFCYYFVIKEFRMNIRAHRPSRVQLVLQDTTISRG
# Nucleotide-binding oligomerization domain-containing protein 1, sequence (Q9Y239 whole entry, the tested form may be a part): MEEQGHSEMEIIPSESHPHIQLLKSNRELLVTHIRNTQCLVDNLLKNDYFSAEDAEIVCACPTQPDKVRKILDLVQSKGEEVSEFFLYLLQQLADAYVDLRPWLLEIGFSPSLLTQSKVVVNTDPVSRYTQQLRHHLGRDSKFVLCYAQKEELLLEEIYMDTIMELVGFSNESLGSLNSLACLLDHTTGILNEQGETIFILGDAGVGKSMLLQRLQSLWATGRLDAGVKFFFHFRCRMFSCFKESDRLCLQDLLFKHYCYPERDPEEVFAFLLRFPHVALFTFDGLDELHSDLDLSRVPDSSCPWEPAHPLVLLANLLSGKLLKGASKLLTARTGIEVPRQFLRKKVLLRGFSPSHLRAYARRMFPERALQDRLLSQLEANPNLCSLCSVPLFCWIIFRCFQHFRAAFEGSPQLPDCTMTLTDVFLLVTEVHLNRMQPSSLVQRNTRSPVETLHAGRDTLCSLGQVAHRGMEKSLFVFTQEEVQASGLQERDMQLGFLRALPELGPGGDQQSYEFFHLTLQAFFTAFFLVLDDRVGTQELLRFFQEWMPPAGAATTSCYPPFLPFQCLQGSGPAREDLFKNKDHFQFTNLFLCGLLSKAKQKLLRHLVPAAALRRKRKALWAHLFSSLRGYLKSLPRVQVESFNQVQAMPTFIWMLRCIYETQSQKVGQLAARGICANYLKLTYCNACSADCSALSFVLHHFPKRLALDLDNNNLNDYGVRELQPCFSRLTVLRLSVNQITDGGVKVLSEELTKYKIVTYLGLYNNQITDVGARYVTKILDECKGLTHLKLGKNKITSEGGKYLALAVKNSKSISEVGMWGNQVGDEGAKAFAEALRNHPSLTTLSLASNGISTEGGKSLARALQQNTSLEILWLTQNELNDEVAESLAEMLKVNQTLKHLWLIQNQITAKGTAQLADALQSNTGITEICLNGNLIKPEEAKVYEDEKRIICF
# Tyrosine-protein phosphatase non-receptor type 12, sequence (Q05209 whole entry): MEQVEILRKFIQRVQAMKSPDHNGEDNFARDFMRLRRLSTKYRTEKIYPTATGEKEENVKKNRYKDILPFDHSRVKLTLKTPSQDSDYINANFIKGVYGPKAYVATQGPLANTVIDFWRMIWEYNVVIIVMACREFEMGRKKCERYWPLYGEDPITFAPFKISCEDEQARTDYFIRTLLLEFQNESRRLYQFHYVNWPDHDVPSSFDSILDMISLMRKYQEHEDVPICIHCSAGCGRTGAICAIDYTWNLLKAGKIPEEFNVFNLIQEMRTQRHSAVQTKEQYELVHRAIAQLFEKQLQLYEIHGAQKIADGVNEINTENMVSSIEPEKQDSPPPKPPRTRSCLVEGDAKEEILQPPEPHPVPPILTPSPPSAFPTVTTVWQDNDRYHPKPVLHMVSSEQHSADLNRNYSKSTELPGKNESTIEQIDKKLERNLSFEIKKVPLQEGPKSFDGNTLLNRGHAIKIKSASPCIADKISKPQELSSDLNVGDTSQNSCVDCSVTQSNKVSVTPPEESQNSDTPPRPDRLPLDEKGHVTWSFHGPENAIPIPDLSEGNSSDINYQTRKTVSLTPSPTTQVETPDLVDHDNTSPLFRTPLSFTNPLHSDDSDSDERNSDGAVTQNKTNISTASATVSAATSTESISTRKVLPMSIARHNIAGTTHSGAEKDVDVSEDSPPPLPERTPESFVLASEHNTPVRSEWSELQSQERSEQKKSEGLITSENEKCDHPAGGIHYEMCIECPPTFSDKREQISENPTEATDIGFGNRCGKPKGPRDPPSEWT
smiles,measurement,setting,value
COc1ccccc1CC(=N)NOC(=O)c1ccco1,Ki,[1],48.4 µM (inactive)
NC(=O)c1ccc(Cn2c(C(=O)c3cc(Cl)c(N)c(Cl)c3)c3ccccc3[n+]2[O-])cc1,IC50,[2],> 20 µM (inactive)
same,IC50,[3],10.8 µM (active)
same,IC50,[4],> 20 µM (inactive)
CCCCC(=O)NNC=C1C(=O)N(CC)C(=S)N(CC)C1=O,IC50,[5],> 66.6 µM (inactive)
CCOC(=O)c1ccc2c(c1)N(C)C(=O)c1ccccc1S2,IC50,[6],> 100 µM (inactive)
same,IC50,[7],8.14 µM (active)
same,IC50,[8],11.7 µM (active)
same,IC50,[9],1.55 µM (active)
same,IC50,[10],22.2 µM (active)
same,IC50,[11],> 100 µM (inactive)
same,IC50,[12],12.9 µM (inactive)
same,IC50,[13],> 99 µM (inactive)
same,IC50,[14],8.67 µM (active)
same,IC50,[15],16.6 µM (inactive)
COc1cc(/C=C2\C(=O)ON=C2c2ccccc2)cc(Cl)c1O,EC50,[16],> 32 µM (inactive)
O=C(COc1ccccc1Cl)N[C@@H]1CCCN(Cc2ccccc2)C1,EC50,[17],10 µM (active)
CC(C)c1ccc(S(=O)(=O)NCc2ccc(C(=O)NCCN(Cc3ccccc3)C(C)C)cc2)cc1,IC50,[18],0.66 µM (active)
same,IC50,[19],1.57 µM (active)
same,IC50,[20],> 32 µM (inactive)
same,IC50,[21],0.531 µM (active)
Cc1cc(OCC(=O)O)ccc1[S+](C)[O-] (stereo unspecified),IC50,[22],> 100 µM (inactive)
same,IC50,[23],> 100 µM (inactive)
same,IC50,[24],> 99 µM (inactive)
same,IC50,[25],> 100 µM (inactive)
same,IC50,[26],> 100 µM (inactive)
same,IC50,[27],> 100 µM (inactive)
same,IC50,[28],> 100 µM (inactive)
same,IC50,[29],> 99 µM (inactive)
O=C(Cn1c(=O)c2cccn2c2cccnc21)NCCCN1CCN(Cc2ccccc2)CC1,IC50,[18],> 32 µM (inactive)
same,IC50,[20],> 32 µM (inactive)
same,IC50,[30],> 20 µM (inactive)
same,IC50,[31],11 µM (inactive)
O=C(Nc1ccc(Cl)c([N+](=O)[O-])c1)c1ccc2ccccc2c1O,IC50,[32],0.87 µM (active)
same,IC50,[33],0.692 µM (active)
same,IC50,[34],4.04 µM (active)
